# Data from patent publication US20070254894A1, “Novel small molecules with selective cytotoxicity against human microvascular endothelial cell proliferation” (priority 2006, published 2007).
# Read-outs that look alike come from different tables or passages of the source.
# Assays:
# [1] = test system: HMVEC cells stimulated with VEGF 165; assay: VEGF driven HMVEC proliferation screen; format: cell-based
# Description: (§1) HMVEC cells were plated on collagen-coated plates at 2500 cells/well for 24 hours. Various concentrations of test compounds were then added to duplicate plates. […] Anti-FGF antibody (final concentration of 5 μg/mL) was added to four control wells as a standard inhibitor. At the same time the compounds were added, a T-zero plate was generated (Alamar blue was added to a plate and read after three hours). The plates with the compounds were incubated for one hour at 37° C., 5% carbon dioxide. At this point, b-FGF was added (final concentration of 2.5 ng/mL). Tween-20 (10 μL) was added to four additional control wells to represent total death and the plates were returned to the carbon dioxide incubator for 6 days.
# The assay was run identically using VEGF in place of b-FGF. The final concentration of VEGF 165, in this mode, was 10 ng/mL. The control inhibitor was anti-VEGF antibody (final concentration of […]). All other conditions were the same.
# [2] = test system: HMVEC cells stimulated with b-FGF; assay: b-FGF driven HMVEC proliferation screen; format: cell-based
# Description: as §1
# [3] = test system: Primary Human Dermal Fibroblasts; assay: in vitro; conditions: read-out: D. Fibroblast LC50; 6 days, Alamar blue
# Description: In parallel with the VEGF and FGF screens, a normal cell toxicity assay was run. Primary Human Dermal Fibroblasts (Clonetics) were plated at 5000 cells/well. After 24 hours various concentrations of test compounds, were added in duplicate plates and 10% Tween-20 was added to four control wells to represent total death. At the same time a T-zero plate was generated. The plates were returned to the carbon dioxide incubator and on day 6 Alamar blue was added and the plates read after 3 hours.
# Using a T-zero plate allows the observation of compounds that cause the cells to become static as well as inhibit growth.
# [4] = VEGF 165 10 ng/mL, 6 days, Alamar blue, read-out: VEGF LC50
# [5] = b-FGF 2.5 ng/mL, 6 days, Alamar blue, read-out: b-FGF LC50
# [6] = Homo sapiens, HMVEC, 144 h, VEGF 165 10 ng/mL, 6 days, Alamar blue, read-out: VEGF LC50
# [7] = Homo sapiens, HMVEC, 144 h, b-FGF 2.5 ng/mL, 6 days, Alamar blue, read-out: b-FGF LC50
SMILES,CC50 [1],CC50 [2],CC50 [3],"CC50 [1, 4]","CC50 [2, 5]","CC50 [1, 6]","CC50 [2, 7]"
O=C(Nc1cccc2cccnc12)c1ccccn1 [Compound 1],65 nM,61 nM,–,–,–,–,–
COc1cc(NC(=O)c2ccccn2)c2ncccc2c1 [Compound 2],38 nM,31 nM,3400 nM,–,–,–,–
COc1ccc(NC(=O)c2ccccn2)c2ncccc12 [Compound 3],–,–,> 10000 nM,120 nM,110 nM,–,–
O=C(Nc1cc(Cl)cc2cccnc12)c1ccccn1 [Compound 4],120 nM,110 nM,> 10000 nM,–,–,–,–
O=C(Nc1cc(C(F)(F)F)cc2cccnc12)c1ccccn1 [Compound 5],160 nM,120 nM,> 10000 nM,–,–,–,–
Cc1ccc2cccc(NC(=O)c3ccccn3)c2n1 [Compound 6],3900 nM,3200 nM,> 10000 nM,–,–,–,–
O=C(Nc1cccc2cc(Cl)cnc12)c1ccccn1 [Compound 7],310 nM,320 nM,> 10000 nM,–,–,–,–
CCOc1cc(NC(=O)c2ccccn2)c2ncccc2c1 [Compound 8],96 nM,81 nM,> 10000 nM,–,–,–,–
O=C(Nc1cc(-c2ccccc2)cc2cccnc12)c1ccccn1 [Compound 10],–,–,> 10000 nM,260 nM,380 nM,–,–
Cc1cc(NC(=O)c2ccccn2)c2ncccc2c1 [Compound 11],73 nM,68 nM,> 10000 nM,–,–,–,–
O=C(Nc1ccc(Oc2ccccc2)c2cccnc12)c1ccccn1 [Compound 12],–,–,> 10000 nM,1000 nM,1000 nM,–,–
O=C(Nc1cc(N2CCOCC2)cc2cccnc12)c1ccccn1 [Compound 13],25 nM,26 nM,> 10000 nM,–,–,–,–
Cc1ccc(NC(=O)c2ccccn2)c2ncccc12 [Compound 14],130 nM,170 nM,> 10000 nM,–,–,–,–
O=C(Nc1cc(Cl)c(Cl)c2cccnc12)c1ccccn1 [Compound 15],210 nM,220 nM,> 10000 nM,–,–,–,–
Cc1cc(NC(=O)c2ccccn2)c2ncccc2c1C [Compound 17],160 nM,130 nM,> 10000 nM,–,–,–,–
O=C(Nc1ccc(Cl)c2cccnc12)c1ccccn1 [Compound 18],170 nM,200 nM,> 10000 nM,–,–,–,–
CN1CCN(c2ccc(NC(=O)c3ccccn3)c3ncccc23)CC1 [Compound 19],–,–,> 10000 nM,28 nM,28 nM,–,–
O=C(Nc1cc(OCCN2CCOCC2)cc2cccnc12)c1ccccn1 [Compound 20],30 nM,31 nM,–,–,–,–,–
CN(C)CCN(C)c1ccc(NC(=O)c2ccccn2)c2ncccc12 [Compound 21],–,–,> 10000 nM,3700 nM,2400 nM,–,–
CCCOc1cccnc1C(=O)Nc1cccc2cccnc12 [Compound 23],180 nM,210 nM,> 10000 nM,–,–,–,–

SMILES,CC50 [1],CC50 [2],CC50 [3],"CC50 [1, 4]","CC50 [2, 5]","CC50 [1, 6]","CC50 [2, 7]"
Cc1cccnc1C(=O)Nc1cccc2cccnc12 [Compound 24],140 nM,150 nM,> 10000 nM,–,–,–,–
Cc1cccc(C(=O)Nc2cccc3cccnc23)n1 [Compound 25],2500 nM,2300 nM,> 10000 nM,–,–,–,–
O=C(Nc1cccc2cccnc12)c1cccc(Br)n1 [Compound 26],86 nM,120 nM,> 10000 nM,–,–,–,–
O=C(Nc1cccc2cccnc12)c1cc(-c2ccccc2)ccn1 [Compound 27],–,–,> 10000 nM,640 nM,950 nM,–,–
O=C(Nc1cccc2cccnc12)c1cc2ccccc2cn1 [Compound 28],480 nM,610 nM,> 10000 nM,–,–,–,–
COc1ccnc(C(=O)Nc2cccc3cccnc23)c1 [Compound 29],60 nM,69 nM,> 10000 nM,–,–,–,–
O=C(Nc1cccc2cccnc12)c1cc(N2CCOCC2)ccn1 [Compound 30],22 nM,26 nM,8000 nM,–,–,–,–
O=C(Nc1cccc2cccnc12)c1ccc(-c2ccccc2)cn1 [Compound 33],–,–,> 10000 nM,4700 nM,6100 nM,–,–
"CN1CCN(c2ccnc(C(=O)Nc3cccc4cccnc34)c2)CC1 [Compound 34, 4-(4-methylpiperazin-1-yl)pyridine-2-carboxylic acid quinolin-8-ylamide]",–,–,> 10000 nM,13 nM,18 nM,–,–
O=C(Nc1cccc2cccnc12)c1cc(NCCN2CCOCC2)ccn1 [Compound 35],120 nM,160 nM,> 10000 nM,–,–,–,–
O=C(Nc1cccc2cccnc12)c1cc(N2CCN(Cc3ccccc3)CC2)ccn1 [Compound 36],–,–,> 10000 nM,840 nM,900 nM,–,–
O=C(Nc1cccc2cccnc12)c1cc(N2CCC(O)CC2)ccn1 [Compound 37],290 nM,310 nM,> 10000 nM,–,–,–,–
CN1CCCN(c2ccnc(C(=O)Nc3cccc4cccnc34)c2)CC1 [Compound 38],26 nM,25 nM,> 10000 nM,–,–,–,–
O=C(Nc1cccc2cccnc12)c1cc(N2CCN(CCO)CC2)ccn1 [Compound 39],220 nM,650 nM,> 10000 nM,–,–,–,–
CCN(CCN(C)C)c1ccnc(C(=O)Nc2cccc3cccnc23)c1 [Compound 40],16 nM,21 nM,7600 nM,–,–,–,–
CCN1CCN(c2ccnc(C(=O)Nc3cccc4cccnc34)c2)CC1 [Compound 41],17 nM,18 nM,4200 nM,–,–,–,–
O=C(Nc1cccc2cccnc12)c1cc(N2CCC(N3CCCC3)CC2)ccn1 [Compound 42],–,–,3600 nM,42 nM,33 nM,–,–
O=C(Nc1cccc2cccnc12)c1cc(N2CCCCC2)ccn1 [Compound 43],–,–,> 10000 nM,400 nM,220 nM,–,–
O=C(Nc1cccc2cccnc12)c1cc(N2CCSCC2)ccn1 [Compound 44],–,–,> 10000 nM,180 nM,250 nM,–,–
O=C(Nc1cccc2cccnc12)c1cc(SCc2ccccc2)ccn1 [Compound 45],–,–,> 10000 nM,61 nM,190 nM,–,–

SMILES,CC50 [1],CC50 [2],CC50 [3],"CC50 [1, 4]","CC50 [2, 5]","CC50 [1, 6]","CC50 [2, 7]"
O=C(Nc1cccc2cccnc12)c1ncccc1O [Compound 46],51 nM,66 nM,> 10000 nM,–,–,–,–
O=C(Nc1cccc2cccnc12)c1ncccc1OCCN1CCOCC1 [Compound 48],950 nM,1600 nM,–,–,–,–,–
CN(C)CCCOc1cccnc1C(=O)Nc1cccc2cccnc12 [Compound 49],–,–,> 10000 nM,1700 nM,2500 nM,–,–
COc1cc(NC(=O)c2cc(N3CCN(C)CC3)ccn2)c2ncccc2c1 [Compound 54],–,–,> 10000 nM,15 nM,20 nM,–,–
"CN1CCC[C@H]1C(=O)Nc1cccc2cccnc12 [Compound 58, (S)-1-methyl-pyrrolidine-2-carboxylic acid quinolin-8-ylamide]",–,–,> 10000 nM,190 nM,170 nM,–,–
COc1cc(NS(=O)(=O)c2ccccn2)c2ncccc2c1 [Compound 72],170 nM,240 nM,> 10000 nM,–,–,–,–
O=S(=O)(Nc1cc(Cl)c(Cl)c2cccnc12)c1ccccn1 [Compound 73],1100 nM,1000 nM,> 10000 nM,–,–,–,–
Cc1ccc(NS(=O)(=O)c2ccccn2)c2ncccc12 [Compound 74],120 nM,110 nM,> 10000 nM,–,–,–,–
O=C(Nc1cccc2nccnc12)c1ccccn1 [Compound 77],–,–,> 10000 nM,170 nM,180 nM,–,–
O=C(Nc1ccccc1N1CCCC1)c1ccccn1 [Compound 79],8000 nM,6500 nM,> 10000 nM,–,–,–,–
CN(C)c1ccccc1NC(=O)c1ccccn1 [Compound 80],770 nM,830 nM,> 10000 nM,–,–,–,–
CCN(C)c1ccccc1NC(=O)c1ccccn1 [Compound 81],620 nM,500 nM,> 10000 nM,–,–,–,–
CCCN(C)c1ccccc1NC(=O)c1ccccn1 [Compound 82],2000 nM,1300 nM,> 10000 nM,–,–,–,–
CC(C)N(C)c1ccccc1NC(=O)c1ccccn1 [Compound 83],9600 nM,6500 nM,> 10000 nM,–,–,–,–
CCN(CC)c1ccccc1NC(=O)c1ccccn1 [Compound 84],1600 nM,1500 nM,> 10000 nM,–,–,–,–
CN(C)c1c(NC(=O)c2ccccn2)ccc(Cl)c1Cl [Compound 91],3500 nM,2400 nM,> 10000 nM,–,–,–,–
O=C(Nc1cc(OCCN2CCOCC2)cc2cccnc12)c1ccccn1 [Compound 99],–,–,–,–,–,28 nM,31 nM
O=C(Nc1cccc2cccnc12)c1ncccc1OCCN1CCOCC1 [Compound 104],–,–,–,–,–,810 nM,1400 nM
